Columns and labels:
Assay type in all cases: in vivo
[1] = tested on: redroot pigweed (Amaranthus retroflexus, AMARE); assay: Pre-emerge test, greenhouse herbicide activity screening; details: for Pre-emerge Herbicidal Activity AMARE: phytotoxicity rating 0-100, 14 days after application; for phytotoxicity rating AMARE: pre-emerge, 14 days after application, rating scale 0-100
Procedure, shortened: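 Herbicidal damage is scored 0 (none) to 100 (complete plant death) two weeks after a simulated field spray. Rates span 15–1000 g ai/ha, delivered in acetone at 187 l/ha. For post-emergence treatments, plants have 2–3 leaves and the spray carries 0.25% v/v non-ionic surfactant.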

[2] = tested on: barnyardgrass (Echinochloa crus-galli, ECHCG); assay: as above; details: for Pre-emerge Herbicidal Activity ECHCG: phytotoxicity rating 0-100, 14 days after application; for phytotoxicity rating ECHCG: pre-emerge, 14 days after application, rating scale 0-100
Procedure, shortened: (§1)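 Visual ratings on a 0-100 scale (0 no damage, 100 all plants dead) were taken at 14 days after treatment. Rates of 15-1000 g ai/ha in acetone, 187 l/ha, were sprayed onto soil one day after planting (pre-emerge) or onto 2-3 leaf plants with 0.25% v/v surfactant (post-emerge).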

[3] = tested on: common ragweed (Ambrosia artemisizfolia L., AMBEL); assay: as above; details: for Pre-emerge Herbicidal Activity AMBEL: phytotoxicity rating 0-100, 14 days after application; for phytotoxicity rating AMBEL: pre-emerge, 14 days after application, rating scale 0-100
Procedure, shortened: as §1

[4] = tested on: green foxtail (Setaria viridis, SETVI); assay: as above; details: for Pre-emerge Herbicidal Activity SETVI: phytotoxicity rating 0-100, 14 days after application; for phytotoxicity rating SETVI: pre-emerge, 14 days after application, rating scale 0-100
Procedure, shortened: as §1

[5] = tested on: ivyleaf morningglory (Ipomoea hederacea, IPOHE); assay: as above; details: for Pre-emerge Herbicidal Activity IPOHE: phytotoxicity rating 0-100, 14 days after application; for phytotoxicity rating IPOHE: pre-emerge, 14 days after application, rating scale 0-100
Procedure, shortened: as §1

[6] = tested on: johnsongrass (Sorghum halepense, SORHA); assay: as above; details: for Pre-emerge Herbicidal Activity SORHA: phytotoxicity rating 0-100, 14 days after application; for phytotoxicity rating SORHA: pre-emerge, 14 days after application, rating scale 0-100
Procedure, shortened: as §1

[7] = tested on: lambsquarters (Chenopodium album, CHEAL); assay: as above; details: for Pre-emerge Herbicidal Activity CHEAL: phytotoxicity rating 0-100, 14 days after application; for phytotoxicity rating CHEAL: pre-emerge, 14 days after application, rating scale 0-100
Procedure, shortened: as §1

[8] = tested on: large crabgrass (Digitaria sanguinalis, DIGSA); assay: as above; details: for Pre-emerge Herbicidal Activity DIGSA: phytotoxicity rating 0-100, 14 days after application; for phytotoxicity rating DIGSA: pre-emerge, 14 days after application, rating scale 0-100
Procedure, shortened: as §1

[9] = tested on: sicklepod (Cassia obtusifolia, CASOB); assay: as above; details: for Pre-emerge Herbicidal Activity CASOB: phytotoxicity rating 0-100, 14 days after application; for phytotoxicity rating CASOB: pre-emerge, 14 days after application, rating scale 0-100
Procedure, shortened: as §1

[10] = tested on: velvetleaf (Abutilon theophrasti, ABUTH); assay: as above; details: for Pre-emerge Herbicidal Activity ABUTH: phytotoxicity rating 0-100, 14 days after application; for phytotoxicity rating ABUTH: pre-emerge, 14 days after application, rating scale 0-100
Procedure, shortened: as §1

[11] = tested on: field corn (Zea mays L., var. Dekalb 535, CORN); assay: Pre-emerge test, crop safety; details: for Pre-emerge Herbicidal Activity CORN: crop damage rating 0-100, 14 days after application; for phytotoxicity rating CORN: pre-emerge, 14 days after application, rating scale 0-100
Procedure, shortened: as §1

[12] = tested on: upland rice (Oryza sp., var. Tebonnet, RICE); assay: Pre-emerge test, crop safety; details: for Pre-emerge Herbicidal Activity RICE: crop damage rating 0-100, 14 days after application; for phytotoxicity rating RICE: pre-emerge, 14 days after application, rating scale 0-100
Procedure, shortened: as §1

[13] = tested on: barnyardgrass (Echinochloa crus-galli, ECHCG); assay: Post-emerge test, greenhouse herbicide activity screening; details: post-emerge, 14 days after application, rating scale 0-100
Procedure, shortened: (§2)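 Rating: 0–100 visual injury, 14 DAA. Application: acetone, 187 l/ha, 15–1000 g ai/ha, flat-fan track sprayer with nozzle 40–45 cm above soil or canopy. Post-emerge runs used 0.25% v/v surfactant on 2–3 leaf plants.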

[14] = tested on: green foxtail (Setaria viridis, SETVI); assay: as above; details: post-emerge, 14 days after application, rating scale 0-100
Procedure, shortened: as §2

[15] = tested on: ivyleaf morningglory (Ipomoea hederacea, IPOHE); assay: as above; details: post-emerge, 14 days after application, rating scale 0-100
Procedure, shortened: as §2

[16] = tested on: johnsongrass (Sorghum halepense, SORHA); assay: as above; details: post-emerge, 14 days after application, rating scale 0-100
Procedure, shortened: as §2

[17] = tested on: lambsquarters (Chenopodium album, CHEAL); assay: as above; details: post-emerge, 14 days after application, rating scale 0-100
Procedure, shortened: as §2

[18] = tested on: large crabgrass (Digitaria sanguinalis, DIGSA); assay: as above; details: post-emerge, 14 days after application, rating scale 0-100
Procedure, shortened: as §2

[19] = tested on: redroot pigweed (Amaranthus retroflexus, AMARE); assay: as above; details: post-emerge, 14 days after application
Procedure, shortened: as §2

[20] = tested on: sicklepod (Cassia obtusifolia, CASOB); assay: as above; details: post-emerge, 14 days after application, rating scale 0-100
Procedure, shortened: as §2

[21] = tested on: velvetleaf (Abutilon theophrasti, ABUTH); assay: as above; details: post-emerge, 14 days after application, rating scale 0-100
Procedure, shortened: as §2

[22] = tested on: field corn (Zea mays L., var. Dekalb 535, CORN); assay: Post-emerge test, crop safety; details: post-emerge, 14 days after application, rating scale 0-100
Procedure, shortened: as §1

[23] = tested on: upland rice (Oryza sp., var. Tebonnet, RICE); assay: Post-emerge test, crop safety; details: post-emerge, 14 days after application, rating scale 0-100
Procedure, shortened: as §1

[24] = 63 g ai/ha, rating scale 0-100 (0 no damage, 100 complete death)
[25] = 250 g ai/ha, rating scale 0-100

Cn1c(C(F)(F)F)cc(=O)n(-c2ccc(Cl)cc2NC(=O)Oc2ccccc2)c1=O [4-50]
Pre-emerge Herbicidal Activity AMARE ([1]; 63 g ai/ha): 20 | Pre-emerge Herbicidal Activity AMARE ([1]; 250 g ai/ha): 100 | Pre-emerge Herbicidal Activity ECHCG ([2]; 63 g ai/ha): 0 | Pre-emerge Herbicidal Activity ECHCG ([2]; 250 g ai/ha): 0 | Pre-emerge Herbicidal Activity AMBEL ([3]; 63 g ai/ha): 0 | Pre-emerge Herbicidal Activity AMBEL ([3]; 250 g ai/ha): 0 | Pre-emerge Herbicidal Activity SETVI ([4]; 63 g ai/ha): 0 | Pre-emerge Herbicidal Activity SETVI ([4]; 250 g ai/ha): 10 | Pre-emerge Herbicidal Activity IPOHE ([5]; 63 g ai/ha): 0 | Pre-emerge Herbicidal Activity IPOHE ([5]; 250 g ai/ha): 30 | Pre-emerge Herbicidal Activity SORHA ([6]; 63 g ai/ha): 0 | Pre-emerge Herbicidal Activity SORHA ([6]; 250 g ai/ha): 0 | Pre-emerge Herbicidal Activity CHEAL ([7]; 63 g ai/ha): 40 | Pre-emerge Herbicidal Activity CHEAL ([7]; 250 g ai/ha): 100 | Pre-emerge Herbicidal Activity DIGSA ([8]; 63 g ai/ha): 0 | Pre-emerge Herbicidal Activity DIGSA ([8]; 250 g ai/ha): 30 | Pre-emerge Herbicidal Activity CASOB ([9]; 63 g ai/ha): 0 | Pre-emerge Herbicidal Activity CASOB ([9]; 250 g ai/ha): 0 | Pre-emerge Herbicidal Activity ABUTH ([10]; 63 g ai/ha): 20 | Pre-emerge Herbicidal Activity ABUTH ([10]; 250 g ai/ha): 100 | Pre-emerge Herbicidal Activity CORN ([11]; 63 g ai/ha): 0 | Pre-emerge Herbicidal Activity CORN ([11]; 250 g ai/ha): 0 | Pre-emerge Herbicidal Activity RICE ([12]; 63 g ai/ha): 0 | Pre-emerge Herbicidal Activity RICE ([12]; 250 g ai/ha): 10 | phytotoxicity rating ECHCG ([13]; 63 g ai/ha): 0 | phytotoxicity rating ECHCG ([13]; 250 g ai/ha): 0 | phytotoxicity rating SETVI ([14]; 63 g ai/ha): 0 | phytotoxicity rating SETVI ([14]; 250 g ai/ha): 0 | phytotoxicity rating IPOHE ([15]; 63 g ai/ha): 30 | phytotoxicity rating IPOHE ([15]; 250 g ai/ha): 90 | phytotoxicity rating SORHA ([16]; 63 g ai/ha): 0 | phytotoxicity rating SORHA ([16]; 250 g ai/ha): 0 | phytotoxicity rating CHEAL ([17]; 63 g ai/ha): 40 | phytotoxicity rating CHEAL ([17]; 250 g ai/ha): 95 | phytotoxicity rating DIGSA ([18]; 63 g ai/ha): 0 | phytotoxicity rating DIGSA ([18]; 250 g ai/ha): 0 | phytotoxicity rating AMARE [19, 24]: 30 | phytotoxicity rating AMARE [19, 25]: 70 | phytotoxicity rating CASOB ([20]; 63 g ai/ha): 0 | phytotoxicity rating CASOB ([20]; 250 g ai/ha): 20 | phytotoxicity rating ABUTH ([21]; 63 g ai/ha): 60 | phytotoxicity rating ABUTH ([21]; 250 g ai/ha): 95 | phytotoxicity rating CORN (crop damage) ([22]; 63 g ai/ha): 0 | phytotoxicity rating CORN (crop damage) ([22]; 250 g ai/ha): 10 | phytotoxicity rating RICE (crop damage) ([23]; 63 g ai/ha): 0 | phytotoxicity rating RICE (crop damage) ([23]; 250 g ai/ha): 0

C=CC=NNc1c(OC)c(Cl)cc(F)c1-n1c(=O)cc(C(F)(F)F)n(C)c1=O [15-10]
phytotoxicity rating AMARE ([1]; 63 g ai/ha): 100 | phytotoxicity rating AMARE ([1]; 250 g ai/ha): 100 | phytotoxicity rating ECHCG ([2]; 63 g ai/ha): 99 | phytotoxicity rating ECHCG ([2]; 250 g ai/ha): 100 | phytotoxicity rating AMBEL ([3]; 63 g ai/ha): 100 | phytotoxicity rating AMBEL ([3]; 250 g ai/ha): 100 | phytotoxicity rating SETVI ([4]; 63 g ai/ha): 100 | phytotoxicity rating SETVI ([4]; 250 g ai/ha): 100 | phytotoxicity rating IPOHE ([5]; 63 g ai/ha): 100 | phytotoxicity rating IPOHE ([5]; 250 g ai/ha): 100 | phytotoxicity rating SORHA ([6]; 63 g ai/ha): 100 | phytotoxicity rating SORHA ([6]; 250 g ai/ha): 100 | phytotoxicity rating CHEAL ([7]; 63 g ai/ha): 100 | phytotoxicity rating CHEAL ([7]; 250 g ai/ha): 100 | phytotoxicity rating DIGSA ([8]; 63 g ai/ha): 100 | phytotoxicity rating DIGSA ([8]; 250 g ai/ha): 100 | phytotoxicity rating CASOB ([9]; 63 g ai/ha): 80 | phytotoxicity rating CASOB ([9]; 250 g ai/ha): 100 | phytotoxicity rating ABUTH ([10]; 63 g ai/ha): 100 | phytotoxicity rating ABUTH ([10]; 250 g ai/ha): 100 | phytotoxicity rating CORN ([11]; 63 g ai/ha): 75 | phytotoxicity rating CORN ([11]; 250 g ai/ha): 100 | phytotoxicity rating RICE ([12]; 63 g ai/ha): 80 | phytotoxicity rating RICE ([12]; 250 g ai/ha): 100 | Post-emerge Herbicidal Activity ECHCG (phytotoxicity rating) ([13]; 63 g ai/ha): 10 | Post-emerge Herbicidal Activity ECHCG (phytotoxicity rating) ([13]; 250 g ai/ha): 80 | Post-emerge Herbicidal Activity SETVI (phytotoxicity rating) ([14]; 63 g ai/ha): 30 | Post-emerge Herbicidal Activity SETVI (phytotoxicity rating) ([14]; 250 g ai/ha): 75 | Post-emerge Herbicidal Activity IPOHE (phytotoxicity rating) ([15]; 63 g ai/ha): 100 | Post-emerge Herbicidal Activity IPOHE (phytotoxicity rating) ([15]; 250 g ai/ha): 100 | Post-emerge Herbicidal Activity SORHA (phytotoxicity rating) ([16]; 63 g ai/ha): 30 | Post-emerge Herbicidal Activity SORHA (phytotoxicity rating) ([16]; 250 g ai/ha): 70 | Post-emerge Herbicidal Activity CHEAL (phytotoxicity rating) ([17]; 63 g ai/ha): 100 | Post-emerge Herbicidal Activity CHEAL (phytotoxicity rating) ([17]; 250 g ai/ha): 100 | Post-emerge Herbicidal Activity DIGSA (phytotoxicity rating) ([18]; 63 g ai/ha): 60 | Post-emerge Herbicidal Activity DIGSA (phytotoxicity rating) ([18]; 250 g ai/ha): 90 | Post-emerge Herbicidal Activity AMARE (phytotoxicity rating) [19, 24]: 100 | Post-emerge Herbicidal Activity AMARE (phytotoxicity rating) [19, 25]: 100 | Post-emerge Herbicidal Activity CASOB (phytotoxicity rating) ([20]; 63 g ai/ha): 100 | Post-emerge Herbicidal Activity CASOB (phytotoxicity rating) ([20]; 250 g ai/ha): 100 | Post-emerge Herbicidal Activity ABUTH (phytotoxicity rating) ([21]; 63 g ai/ha): 100 | Post-emerge Herbicidal Activity ABUTH (phytotoxicity rating) ([21]; 250 g ai/ha): 100 | Post-emerge Herbicidal Activity CORN (crop damage rating) ([22]; 63 g ai/ha): 45 | Post-emerge Herbicidal Activity CORN (crop damage rating) ([22]; 250 g ai/ha): 65 | Post-emerge Herbicidal Activity RICE (crop damage rating) ([23]; 63 g ai/ha): 50 | Post-emerge Herbicidal Activity RICE (crop damage rating) ([23]; 250 g ai/ha): 80

— patent publication US6355799B1, “Substituted benzene compounds, process for their preparation, and herbicidal and defoliant compositions containing them” (ISK Americas Incorporated, priority 1997, dated 2002)
